Paper PMC11339918, “Extracellular Domain of IL-10 Receptor Chain-2 (IL-10R2) and Its Arginine-Containing Peptides Are Susceptible Substrates for Human Prostate Kallikrein-2 (KLK2)” (Biochemistry, 2024)
*: point of attachment. EDDnp = O=[N+]([O-])c1ccc(NCCN*)c([N+](=O)[O-])c1

What follows are compounds tested against T1, Recombinant KLK2 (Homo sapiens, UniProt P20151) (assay: Hydrolysis of FRET peptides by recombinant KLK2 (kinetic parameters)). Conditions: pH 8.0, 20 mM Tris–HCl, 1 M sodium citrate, 37 °C, KLK2 1.6 nM; three enzymatic reactions, standard errors 5% or less.
T1 construct: made in house; host or cells: baculovirus-insect cell line system
Assay type: biochemical
Text: (§1) Obtained from a baculovirus-insect cell line system, purified, and activated as previously reported,[14] MUGB (4-methylumbelliferyl p-guanidino benzoate hydrochloride) was used for the spectrofluorimetric determination of molar concentrations of active KLK2.[15] KLK3 was obtained and assayed as previously reported.[3]
All of the FRET peptides were obtained by solid-phase peptide synthesis. The purity of FRET peptides to 95% or higher was obtained by semipreparative HPLC on a C18 reversed-phase column and used as protease substrates, as previously reported.[5] Details about the purification and quality of the FRET peptides are provided in the Supporting Information. The enzymatic kinetic measurements were all performed with FRET peptides as previously described.[5]
Five series of FRET peptides derived from Abz-KLRSSK-Q-EDDnp were assayed with KLK2 in 20 mM Tris–HCl, pH 8.0, and 1 M sodium citrate. […] The specificity of subsites S3, S2, S1’, and S2’ was explored by the FRET peptide series Abz-XLRSSKQ-EDDnp (for S3), Abz-KXRSSKQ-EDDnp (for S2), Abz-KLRXSKQ-EDDnp (for S1’), and Abz-KLRSXKQ-EDDnp (for S2’). All of them were hydrolyzed only at R–S or R–X peptide bonds, and the kinetic parameters for their hydrolysis by KLK2 are listed in Table 1.

T1 sequence (P20151 25-261): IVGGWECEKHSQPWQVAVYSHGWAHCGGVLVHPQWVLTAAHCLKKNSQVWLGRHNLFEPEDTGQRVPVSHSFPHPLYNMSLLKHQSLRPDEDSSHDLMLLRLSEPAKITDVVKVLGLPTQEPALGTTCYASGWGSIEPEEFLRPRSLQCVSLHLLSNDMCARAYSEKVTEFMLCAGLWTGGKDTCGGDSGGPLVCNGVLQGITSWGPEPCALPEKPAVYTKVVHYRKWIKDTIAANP

Compound | Km [µM] | kcat [s^–1] | kcat/Km [s^–1 mM^–1]
Abz-XLRSSKQ-EDDnp, X = H: FRET peptide, S3 series, X = H (N-terminal Abz, C-terminal EDDnp; X = H) | 4.2 | 17.2 | 4095
Abz-XLRSSKQ-EDDnp, X = N: FRET peptide, S3 series, X = N (Abz-NLRSSKQ-EDDnp) | 7.8 | 26.7 | 3423
Abz-XLRSSKQ-EDDnp, X = Q: FRET peptide, S3 series, X = Q (Abz-QLRSSKQ-EDDnp) | 5.9 | 25.7 | 4356
Abz-XLRSSKQ-EDDnp, X = R: FRET peptide, S3 series, X = R (Abz-RLRSSKQ-EDDnp) | 3.9 | 22.3 | 5718
Abz-XLRSSKQ-EDDnp, X = S: FRET peptide, S3 series, X = S (Abz-SLRSSKQ-EDDnp) | 3 | 29.8 | 9933
Abz-XLRSSKQ-EDDnp, X = V: FRET peptide, S3 series, X = V [Abz-XLRSSKQ-EDDnp, X = V] (Abz-VLRSSKQ-EDDnp) | 4.7 | 17.9 | 3808

The compounds below were run on KLK3 (assay: Hydrolysis by KLK3 of IL-10R2-derived FRET peptides containing F or Y). Conditions: 2 nM KLK3, 20 mM Tris-HCl, 1 mM EDTA, 1.5 M sodium citrate, pH 7.8, 37 °C.
Assay type: biochemical, human
Text: as §1, with “reported.[3] […]” for “reported.[3]”
FRET Peptides with F FRET Peptides with Y
Abz-MNSVNFKNIL-Q-E DD np Abz-FTAQYLSYR-Q-EDD np
Abz-WESPAFAKGN-Q-EDD np Abz – AQYL SYRIF-Q-EDDnp
Abz-KGNLTFT AQY-Q-EDDnp Abz-SSLSKYGDHT-Q-EDD np
Abz-LSYRIFQDKA-Q-EDD np Abz-KIENEYET WT-Q-EDDnp
Abz-LTEADFSSLS-Q-EDD np Abz-TMKNVYNSWT-Q-ED Dnp
Abz-RVRAEFADEH-Q-EDDnp Abz-NSWTYNVQ-Q-EDDnp
Abz-HSDWVNITFAPVD-Q-EDDnp Abz-NVQYWKNG-Q-EDDnp
Abz-SLHMRFL AP K-Q-EDD np Abz-QITPQYDFEV-Q-EDD np
Abz-GTDEKFQ IT P-Q-EDD np Abz – EPWTTYAVQR-Q-EDD np
Conditions of reactions: 2 nM KLK3, 20 mM Tris -HCl, 1 mM EDTA, 1.5 M sodium citrate, pH 7.8, at 37 °C.
The sequence o f FRET peptide with F or Y in the middle of the sequence can be identiﬁed in the IL-
10R2 ectodomain sequence around F or Y, as shown b e l o w. Cysteines were substituted by Alanine (A)
1 MAWSLGSWLGGCLLVSALGMVPPPENVRMNSVNFKNILQWESPAFAKGNLTFTAQYLSYR.
61 IFQDKCMNTTLTECDFSSLSKYGDHTLRVRAEFADEHSDWVNITFCPVDDTIIGPPGMQV.
121 EVL ADSLHMR FL APKIENEY ET W TMKNVYN SWTYNVQYWK NGTDEKFQIT PQYDFEVLRN.
181 LEPW TTYCVQ VRGF LPDRNK AGEWSEPVCE QTTHDETVPS.

Compound | hydrolysis by KLK3 (in words)
Abz – AQYL SYRIF-Q-EDDnp [Abz-AQYLSYRIF-Q-EDDnp, FRET peptide with Y derived from IL-10R2 ectodomain] | resistant to hydrolysis by KLK3
Abz – EPWTTYAVQR-Q-EDD np [Abz-EPWTTYAVQR-Q-EDDnp, FRET peptide with Y derived from IL-10R2 ectodomain] | resistant to hydrolysis by KLK3
Abz-FTAQYLSYR-Q-EDD np [Abz-FTAQYLSYR-Q-EDDnp, FRET peptide with Y derived from IL-10R2 ectodomain] | resistant to hydrolysis by KLK3
Abz-GTDEKFQ IT P-Q-EDD np [Abz-GTDEKFQITP-Q-EDDnp, FRET peptide with F derived from IL-10R2 ectodomain] | resistant to hydrolysis by KLK3
Abz-HSDWVNITFAPVD-Q-EDDnp [FRET peptide with F derived from IL-10R2 ectodomain] | resistant to hydrolysis by KLK3
Abz-KGNLTFT AQY-Q-EDDnp [Abz-KGNLTFTAQY-Q-EDDnp, FRET peptide with F derived from IL-10R2 ectodomain] | resistant to hydrolysis by KLK3
Abz-KIENEYET WT-Q-EDDnp [Abz-KIENEYETWT-Q-EDDnp, FRET peptide with Y derived from IL-10R2 ectodomain] | resistant to hydrolysis by KLK3
Abz-LSYRIFQDKA-Q-EDD np [Abz-LSYRIFQDKA-Q-EDDnp, FRET peptide with F derived from IL-10R2 ectodomain] | resistant to hydrolysis by KLK3
Abz-LTEADFSSLS-Q-EDD np [Abz-LTEADFSSLS-Q-EDDnp, FRET peptide with F derived from IL-10R2 ectodomain] | resistant to hydrolysis by KLK3
Abz-MNSVNFKNIL-Q-E DD np [Abz-MNSVNFKNIL-Q-EDDnp, FRET peptide with F derived from IL-10R2 ectodomain] | resistant to hydrolysis by KLK3
Abz-NSWTYNVQ-Q-EDDnp [FRET peptide with Y derived from IL-10R2 ectodomain] | resistant to hydrolysis by KLK3
Abz-NVQYWKNG-Q-EDDnp [FRET peptide with Y derived from IL-10R2 ectodomain] | resistant to hydrolysis by KLK3
Abz-QITPQYDFEV-Q-EDD np [Abz-QITPQYDFEV-Q-EDDnp, FRET peptide with Y derived from IL-10R2 ectodomain] | resistant to hydrolysis by KLK3
Abz-RVRAEFADEH-Q-EDDnp [FRET peptide with F derived from IL-10R2 ectodomain] | resistant to hydrolysis by KLK3
Abz-SLHMRFL AP K-Q-EDD np [Abz-SLHMRFLAPK-Q-EDDnp, FRET peptide with F derived from IL-10R2 ectodomain] | resistant to hydrolysis by KLK3
Abz-SSLSKYGDHT-Q-EDD np [Abz-SSLSKYGDHT-Q-EDDnp, FRET peptide with Y derived from IL-10R2 ectodomain] | resistant to hydrolysis by KLK3
Abz-T P QYDFEVLR-Q-EDDnp [Abz-TPQYDFEVLR-Q-EDDnp, FRET peptide with F derived from IL-10R2 ectodomain] | resistant to hydrolysis by KLK3
Abz-TMKNVYNSWT-Q-ED Dnp [Abz-TMKNVYNSWT-Q-EDDnp, FRET peptide with Y derived from IL-10R2 ectodomain] | resistant to hydrolysis by KLK3
Abz-VQVRGFLPDR-Q-EDD np [Abz-VQVRGFLPDR-Q-EDDnp, FRET peptide with F derived from IL-10R2 ectodomain] | resistant to hydrolysis by KLK3
Abz-WESPAFAKGN-Q-EDD np (Abz-WESPAFAKGNQ-EDDnp) [Abz-WESPAFAKGN-Q-EDDnp, FRET peptide with F derived from IL-10R2 ectodomain] | resistant to hydrolysis by KLK3

What follows are compounds tested on KLK2 (assay: Effects of salts and glycosaminoglycans on KLK2 hydrolysis of Abz-KLRSSKQ-EDDnp). Conditions: 20 mM Tris–HCl, 1 mM EDTA, 5.0 μM Abz-KLRSSKQ-EDDnp, [E] = 1.58 nM, 37 °C, pH 8.0.
Assay type: biochemical, human
Method: Bovine lung heparin was prepared as previously reported;[16] dermatan sulfate (12 000 Da) and chondroitin sulfate (25 000 Da) were purchased from Seikagaku Kogyo Co. (Tokyo, Japan), and heparan sulfate (16 000 Da) from the bovine lung was a generous gift from Dr. P. Bianchini (Opocrin Research Laboratories, Modena, Italy).
Figure 1 KLK2 hydrolysis of Abz-KLRSSKQ-EDDnp. (A) Effects of sodium citrate, sodium sulfate, and sodium chloride on the FRET-peptide hydrolysis by KLK2. (B) pH profile for the KLK2 activity. (C) Effects of glycosaminoglycans on KLK2 activity. Assays were carried out in 20 mM Tris–HCl, 1 mM EDTA, and 5.0 μM substrate; [E] = 1.58 nM at 37 °C and pH 8.0 for experiments in (A and C).

Compound | effect of salt on KLK2 activity | effect of glycosaminoglycan on KLK2 activity
O=C([O-])CC(O)(CC(=O)[O-])C(=O)[O-].[Na+].[Na+].[Na+] [sodium citrate] | ten times more efficient activator of KLK2 than sodium sulfate | –
chondroitin sulfate | – | inhibitory
dermatan sulfate | – | activate KLK2 in sub- and micromolar concentrations, respectively
heparan sulfate | – | activate KLK2 in sub- and micromolar concentrations, respectively
heparin | – | almost no effect
